Values after ≈ are worked out from the molar mass of the structure shown. Like-named read-outs stand apart in the source and are kept apart here. No end group written: not given here.
Columns and labels:
C. albicans [1] = test: Killing kinetic assay (time of killing); type: cell-based, Candida albicans; details: 1X MIC concentration
[2] = tested on: Aspergillus niger (ATCC 9142); test: microbe, parasite or virus in culture; type: cell-based
Protocol: (§1) The human skin fibroblast (Hu02 cell) and human breast cancer cells (MDA-MB-231 and SKBR-3 cell lines) were purchased from the National Cell Bank of Iran, Pasture Institute of Ira) for cytotoxicity test. Antimicrobial effects of the Ac-AurH1, AurH1-NH2, and AurH1 against the selected bacteria and fungi were conducted using a standard serial dilution method in a 96-well microplate. For this purpose, the desired fungal and bacterial strains were grown overnight at 37 °C (Some of the fungi were incubated at 25 °C) in related media (SDA for fungi and MHA for bacteria). […] Next, serially diluted synthetic peptides in a volume of 100 μL were added to the microtitre plates, followed by 100 μL of bacteria and fungi to give a final inoculum of 5 × 10^5 colony-forming units (CFU)/ml (a 0.5 McFarland standard inoculum). […] In this test, penicillin and streptomycin antibiotics for bacteria and fluconazole, nystatin, and amphotericin B for fungal strains were used as antibiotic control. […] All tests were repeated three times independently.

[3] = tested on: Candida albicans (ATCC 10,231); test: microbe, parasite or virus in culture; type: cell-based
Protocol: as §1

[4] = tested on: Aspergillus flavus (ATCC 24,109); test: microbe, parasite or virus in culture; type: cell-based
Protocol: as §1

[5] = tested on: Candida glabrata (ATCC 90,030); test: microbe, parasite or virus in culture; type: cell-based
Protocol: as §1

[6] = tested on: Candida krusei (ATCC 28,870); test: microbe, parasite or virus in culture; type: cell-based
Protocol: as §1

[7] = tested on: Staphylococcus aureus (ATCC 25,923); test: microbe, parasite or virus in culture; type: cell-based
Protocol: as §1

[8] = tested on: Escherichia coli (ATCC 25,922); test: microbe, parasite or virus in culture; type: cell-based
Protocol: as §1

[9] = tested on: Human skin fibroblast (Hu02 cells); type: cell-based
Protocol: Toxicity of peptides on Human skin fibroblast (Hu02 cells) and two human breast cancer cell lines (MDA-MB-231 and SKBR3 cell lines) measured by an MTT assay. At first, cell lines with a density of 1 × 10^5 cells were cultured in the wells of 96-well plates for 24 h under standard conditions (37 °C temperature, 5% CO2 atmosphere with 95% relative humidity). After that, the old medium was replaced with fresh medium (with 10% FBS) containing different peptide concentrations, and the cells were incubated for 24 h. A medium without peptide was used as a negative control. After 24 h of incubation and washing the wells with PBS, the medium (containing 10% FBS) was replaced with fresh medium containing 10% MTT solution (freshly prepared 5 mg/ml MTT in PBS), and the plate was incubated for four h in 5% CO2, at 37 °C. Next, the medium was removed from the wells, and 100 µL DMSO was added. Afterward, the plate was shaken to dissolve Formazan crystals. Finally, by a microplate reader (STAT FAX 2100, BioTek, Winooski, USA), the absorbance values were measured at a wavelength of 595 nm. The percentage of toxicity was calculated as follows: […]

human red blood cells = type: cell-based; details: 1 h
Protocol: A hemolytic assay was performed to investigate the effects of peptides on human red blood cells. First, 5 ml of fresh human blood was taken from a volunteer. After that, 20% (v/v) suspension of human erythrocytes was prepared and diluted in PBS (1:20). Next, 100 µL of this blood suspension was added in triplicate to 100 µL of a 2-fold serial dilution series of the peptide in a 96‐well plate. 1% Triton-X 100 was used as a positive control to lyse 100% of RBCs, and sterile 0.9% NaCl solution was used as a negative control. Then the plates were incubated at 37 °C for 1 h and centrifuged at 3500 rpm for 10 min. Next, 100 µL of the supernatant was transferred to a new 96-well plate to measure the absorbance at 414 nm using a microplate reader (STAT FAX 2100, BioTek, Winooski, USA). Finally, the percentage of hemolysis was calculated as follows: […]

C. albicans [10] = test: FE-SEM of C. albicans surface after peptide treatment; type: cell-based, Candida albicans; details: 0.5 X MIC
Protocol: At first, C. albicans were cultured in broth media. Next, yeasts were deposited by centrifugation (4000 rpm for 1 min) and washed (Three times) with PBS (pH 7.4). […] The samples were centrifuged at 4000 rpm for 1 min, washed three times in PBS, and put on the glass slides (1cm2). Subsequently, cells were dehydrated with ethanol gradient (at 10, 30, 60, 70, and 90%). After that, the dehydrated cells were dissolved in 100% ethanol for 15 min and dried at room temperature (25 °C). Finally, C. albicans cells were coated with gold nanoparticles by an automatic sputter coater and observed using an FE-SEM instrument (JSM-7610 F, JEOL Co., Japan and MIRA3, TESCAN Co., Czech).

C. krusei = type: cell-based, Candida krusei
Protocol: (§2) The microbial inoculum was prepared based on broth micro-dilution assay to generate a concentration of fungi corresponding to 5 × 10^5 CFU/mL. […] The obtained results were analyzed in terms of the fractional inhibitory concentration index (FIC): [drawing 4] AMPs and antibiotics are antagonistic if FIC ≥ 4.0, indifference if > 1 FIC < 4.0, additive if > 0.5 FIC ≤ 1, and synergism if FIC ≤ 0.5.

C. glabrata = type: cell-based, Candida glabrata
Protocol: as §2

C. albicans [11] = type: cell-based, Candida albicans
Protocol: as §2

C. albicans [12] = test: Effect of salts and human serum on antimicrobial activity (MIC); type: cell-based, Candida albicans
Protocol: To evaluate the effect of salts and human serum on the antimicrobial activity of the AurH1-NH2 and AurH1 peptides, their antimicrobial activity (MICs values) against C. albicans under different conditions containing salt and human serum was determined. Therefore, mid-logarithmic phase yeasts diluted to 5 × 10^5 CFU/ml in SDB were added to related media containing different concentrations of human serum (10%, 20%, and 30%) and salts (150 mM NaCl and 1mM MgCl2), and incubated at 37 °C for 24 h.

C. albicans [13] = test: Ergosterol binding assay (MIC in presence and absence of ergosterol); type: cell-based, Candida albicans
Protocol: An ergosterol binding assay was performed to measure the binding potency of peptides to fungal membrane sterols. For this purpose, the ergosterol was dissolved in DMSO and Tween-20, it was heated to increase the solubility of the formed emulsion and diluted in an SDB medium at a concentration of […] and incubated at 37 °C for 1 h. After that, MIC of the AurH1, Ac-AurH1, and AurH1-NH2 peptides was measured by the micro-dilution method in the presence and absence of ergosterol in different concentrations ([…]) against C. albicans.

[14] = A. niger, mean of 3 independent tests
[15] = C. albicans, mean of 3 independent tests
[16] = A. flavus, mean of 3 independent tests
[17] = C. glabrata, mean of 3 independent tests
[18] = C. krusei, mean of 3 independent tests
[19] = in combination with amphotericin B (Amph)
[20] = in combination with fluconazole (Flu)
[21] = in combination with nystatin (Nys)

OC(Cn1cncn1)(Cn1cncn1)c1ccc(F)cc1F [Flu, Fluconazole, reference compound]
time to kill all C. albicans (maximum fungicidal effect) (C. albicans [1]): could not eliminate C. albicans after 24 h
MBC ([2]; Aspergillus niger, ATCC9142, A. niger, mean of 3 independent tests): > 1000 µg/mL
MIC ([2]; Aspergillus niger, ATCC9142, A. niger, mean of 3 independent tests, read-out: MIC): 500 µg/mL (≈ 1630 µM)
MBC ([3]; Candida albicans, ATCC10, C. albicans, mean of 3 independent tests): 500 µg/mL (≈ 1630 µM)
MIC ([3]; Candida albicans, ATCC10, C. albicans, mean of 3 independent tests, read-out: MIC): 62.5 µg/mL (≈ 204 µM)
MIC ([4]; Aspergillus flavus, ATCC24, A. flavus, mean of 3 independent tests, read-out: MIC): > 1000 µg/mL
MBC ([5]; Nakaseomyces glabratus, ATCC90, C. glabrata, mean of 3 independent tests): 500 µg/mL (≈ 1630 µM)
MIC ([5]; Nakaseomyces glabratus, ATCC90, C. glabrata, mean of 3 independent tests, read-out: MIC): 125 µg/mL (≈ 408 µM)
MBC ([6]; Pichia kudriavzevii, ATCC28, C. krusei, mean of 3 independent tests): 250 µg/mL (≈ 816 µM)
MIC ([6]; Pichia kudriavzevii, ATCC28, C. krusei, mean of 3 independent tests, read-out: MIC): 62.5 µg/mL (≈ 204 µM)

C[C@@H]1[C@H](O)[C@@H](C)/C=C/C=C/CC/C=C/C=C/C=C/C=C/C(O[C@H]2O[C@H](C)[C@@H](O)[C@H](N)[C@@H]2O)CC2O[C@](O)(CC(O)C(O)CCC(O)CC(O)CC(O)CC(=O)O[C@H]1C)CC(O)C2C(=O)O (some centres unmarked) [Nys, Nystatin, reference compound]
time to kill all C. albicans (maximum fungicidal effect) (C. albicans [1]): 8 h
MBC (MFC) [2, 14]: 125 µg/mL (≈ 135 µM)
MIC [2, 14]: 31.25 µg/mL (≈ 33.7 µM)
MBC (MFC) [3, 15]: 3.90 µg/mL (≈ 4.21 µM)
MIC [3, 15]: 1.95 µg/mL (≈ 2.11 µM)
MBC (MFC) [4, 16]: 62.50 µg/mL (≈ 67.5 µM)
MIC [4, 16]: 7.81 µg/mL (≈ 8.43 µM)
MBC (MFC) [5, 17]: 3.9 µg/mL (≈ 4.21 µM)
MIC [5, 17]: 3.9 µg/mL (≈ 4.21 µM)
MBC (MFC) [6, 18]: 3.90 µg/mL (≈ 4.21 µM)
MIC [6, 18]: 1.95 µg/mL (≈ 2.11 µM)

[H]/N=C(/N)N[C@H]1[C@H](O)[C@@H](O)[C@H](O[C@@H]2O[C@@H](C)[C@](O)(C=O)[C@H]2O[C@@H]2O[C@@H](CO)[C@H](O)[C@@H](O)[C@@H]2NC)[C@@H](N/C(N)=N\[H])[C@@H]1O [Strep, Streptomycin, reference compound]
MIC ([7]; Staphylococcus aureus, ATCC25, S. aureus, mean of 3 independent tests, read-out: MIC): 62.5 µg/mL (≈ 107 µM)
MIC ([8]; Escherichia coli, ATCC25, E. coli, mean of 3 independent tests, read-out: MIC): 3.9 µg/mL (≈ 6.71 µM)

Ac-WFKIIKK [Ac-AurH1, Ac-WFKIIKK]
toxicity [9]: more than 10%
HC50 (concentration that lyses 50% of red blood cells) (human red blood cells): 10,127 µg/ml
MIC ([2]; ATCC 9142, 24 h): > 1000 µg/mL
MBC (MFC) ([3]; ATCC 10, 24 h): > 1000 µg/mL
MIC ([3]; ATCC 10, 24 h): 250 µg/mL
MIC ([7]; ATCC 25, 24 h): > 1000 µg/mL
MIC ([4]; ATCC 24, 24 h): > 1000 µg/mL
MIC ([5]; ATCC 90, 24 h): > 1000 µg/mL
MIC ([8]; ATCC 25, 24 h): > 1000 µg/mL
MBC (MFC) ([6]; ATCC 28, 24 h): > 1000 µg/mL
MIC ([6]; ATCC 28, 24 h): 500 µg/mL

H-WFKIIKK-NH2 [AurH1-NH2, WFKIIKK-NH2]
surface morphology change (FE-SEM) (C. albicans [10]; after 2 h): shrinkages in cell-surface
surface morphology change (FE-SEM) (C. albicans [10]; after 4 h): increase was seen in the amount of cell surface shrinkage and cell roughening
surface morphology change (FE-SEM) (C. albicans [10]; after 6 h): blisters and surface pores on the cell surface were created
Interpretation (C. krusei; [19]): Synergy (synergism if FIC ≤ 0.5)
Interpretation (C. krusei; [20]): Indifference (indifference if > 1 FIC < 4.0)
Interpretation (C. krusei; [21]): Antagonist (antagonistic if FIC ≥ 4.0)
toxicity [9]: no significant toxicity
HC50 (concentration that lyses 50% of red blood cells) (human red blood cells): 14,246 µg/ml
time to kill all C. albicans (maximum fungicidal effect) (C. albicans [1]): 12 h
Interpretation (C. glabrata; [19]): Synergy (synergism if FIC ≤ 0.5)
Interpretation (C. glabrata; [20]): Indifference (indifference if > 1 FIC < 4.0)
Interpretation (C. glabrata; [21]): Antagonist (antagonistic if FIC ≥ 4.0)
Interpretation (C. albicans [11]; [19]): Synergy (synergism if FIC ≤ 0.5)
Interpretation (C. albicans [11]; [20]): Indifference (indifference if > 1 FIC < 4.0)
Interpretation (C. albicans [11]; [21]): Indifference (indifference if > 1 FIC < 4.0)
MIC (C. albicans [12]; SDB): 7.81 µg/mL
MIC (C. albicans [12]; SDB + 10% serum (human)): 7.81 µg/mL
MIC (C. albicans [12]; SDB + 20% serum (human)): 7.81 µg/mL
MIC (C. albicans [12]; SDB + 30% serum (human)): 15.6 µg/mL
MIC (C. albicans [12]; SDB + MgCl2 (1 mM)): 7.81 µg/mL
MIC (C. albicans [12]; SDB + NaCl (150 mM)): 7.81 µg/mL
MIC (C. albicans [13]; after treatment with Ergosterol (Erg)): 7.81 µg/mL
MIC (C. albicans [13]; before treatment with Ergosterol (substance alone)): 7.81 µg/mL
MBC (MFC) ([2]; ATCC 9142, 24 h): 500 µg/mL
MIC ([2]; ATCC 9142, 24 h): 125 µg/mL
MBC (MFC) ([3]; ATCC 10, 24 h): 62.50 µg/mL
MIC ([3]; ATCC 10, 24 h): 7.81 µg/mL
MIC ([7]; ATCC 25, 24 h): > 1000 µg/mL
MBC (MFC) ([4]; ATCC 24, 24 h): 1000 µg/mL
MIC ([4]; ATCC 24, 24 h): 250 µg/mL
MBC (MFC) ([5]; ATCC 90, 24 h): 62.5 µg/mL
MIC ([5]; ATCC 90, 24 h): 62.5 µg/mL
MIC ([8]; ATCC 25, 24 h): > 1000 µg/mL
MBC (MFC) ([6]; ATCC 28, 24 h): 31.25 µg/mL
MIC ([6]; ATCC 28, 24 h): 7.81 µg/mL

Penicillin [reference compound]
MIC ([7]; S. aureus, mean of 3 independent tests): 0.45/NA µg/mL
MIC ([8]; E. coli, mean of 3 independent tests): 31.25/NA µg/mL

From PMC10633902, “Investigating the antimicrobial activity, cytotoxicity, and action mechanism of acylated and amidated derivatives of AurH1 antifungal peptide” (BMC Microbiology, 2023)
